From patent US20220151999A1, “METHODS OF TREATING ATTENTION DEFICIT HYPERACTIVITY DISORDER USING KDM1A INHIBITORS SUCH AS THE COMPOUND VAFIDEMSTAT” (ORYZON GENOMICS, S.A., priority 2019, published 2022)

Experiments:
Type in all cases: in vivo, human
ADHD patients [1] = experiment: REIMAGINE Phase IIa trial, ADHD cohort: ADHD Rating Scale (ADHD-RS); details: adult ADHD patients (5 eligible), 1.2 mg/day oral, 5 days on/2 days off, 8 weeks; paired one-tail t-test p=0.0279
Source text: (§1) As part of a Phase IIa clinical trial (REIMAGINE trial, EudraCT number 2018-002140-88) to evaluate the safety, tolerability and efficacy of the KDM1A inhibitor vafidemstat to treat aggression in adult population in patients with different CNS disorders, a cohort of ADHD patients was recruited and treated with vafidemstat for 8 weeks. A summary of the protocol of this clinical trial and results obtained in the ADHD cohort are provided below.
(§2) Reimagine is a unicenter, open-label, 1-arm, 8-week clinical study to evaluate the efficacy, safety and tolerability of vafidemstat in aggression in adult population with Alzheimer's Disease (AD), Lewy Body Dementia (LBD), Adult attention Deficit Hyperactivity Disorder (ADHD), Borderline Personality Disorder (BPD) and Autism Spectrum Disorder (ASD). Six patients to be recruited per disorder. […]
(§3) Evaluation of the effect of treatment with vafidemstat on aggression was performed using the Clinical Global Impression (CGI) scale. […] In addition to assessing its effect on aggression, the effect of treatment with vafidemstat on ADHD patients was also evaluated using the Attention Deficit Hyperactivity Disorder Rating Scale (ADHD-RS), a validated scale that is specific for ADHD and is widely used to evaluate ADHD in adults. […] Each item is scored from 0 to 3 points, with the highest scores indicating the presence of problematic symptoms/behavior. […]

ADHD patients [2] = experiment: REIMAGINE Phase IIa trial, ADHD cohort: aggression by Clinical Global Impression (CGI-S, CGI-I) scales; details: adult ADHD patients (5 eligible), 1.2 mg/day oral, 5 days on/2 days off, 8 weeks
Source text: as §1, §2, §3

ADHD patients [3] = experiment: REIMAGINE Phase IIa trial, ADHD cohort: safety and tolerability; details: adult ADHD patients, 1.2 mg/day oral, 5 days on/2 days off, 8 weeks
Source text: as §1
Reimagine is a unicenter, open-label, 1-arm, 8-week clinical study to evaluate the efficacy, safety and tolerability of vafidemstat in aggression in adult population with Alzheimer's Disease (AD), Lewy Body Dementia (LBD), Adult attention Deficit Hyperactivity Disorder (ADHD), Borderline Personality Disorder (BPD) and Autism Spectrum Disorder (ASD). Six patients to be recruited per disorder.
Main objective of the trial: To evaluate the safety and tolerability of vafidemstat in adult population with Alzheimer's Disease (AD), Lewy Body Dementia (LBD), Adult attention deficit hyperactivity disorder (ADHD), Borderline Personality Disorder (BPD), Autism Spectrum Disorder (ASD)
Treatment: All patients received vafidemstat (as free base) at a dose of 1.2 mg/day, administered orally as a single capsule, in a 5 days on/2 days off schedule, during 8 weeks. […]

With Nc1nnc(CN[C@@H]2C[C@H]2c2ccc(OCc3ccccc3)cc2)o1 [vafidemstat, 5-((((1R,2S)-2-(4-(benzyloxy)phenyl)cyclopropyl)amino)methyl)-1,3,4-oxadiazol-2-amine] the “ADHD-RS score, change from visit 1 (baseline) to visit 7” value (ADHD patients [1]) was “statistically significant reduction”, the “CGI-Severity (CGI-S) score, aggression, change from visit 1 (baseline) to visit 7” value (ADHD patients [2]; paired one-tail t-test p=0.0043) was “statistically significant reductions” and the “CGI-Improvement (CGI-I) score, aggression, change from visit 1 (baseline) to visit 7” value (ADHD patients [2]; paired one-tail t-test p=0.0352) was “statistically significant reductions”. For the same compound, the “safety and tolerability of treatment” value (ADHD patients [3]) was “safe and well tolerated, without significant adverse events”.
